# Tests used:
# [1] = system: bulrush; assay: Test Example 1: herbicidal efficacy on rice paddy weeds pre-emergence; type: in vivo, Scirpus juncoides; conditions: dosage 1000 g/ha, 21 days
# [2] = system: false pimpernel; assay: as above; type: in vivo, Lindernia pyxidaria; conditions: dosage 1000 g/ha, 21 days
# [3] = system: barnyard glass; assay: Test Example 2: herbicidal efficacy on rice paddy weeds post-emergence; type: in vivo, Echinochloa crus-galli; conditions: dosage 1000 g/ha; post-emergence, one leaf stage; 21 days after treatment
# Summary of the method: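 Plastic pots of 75 cm^2 were filled with clay loam soil and sown with barnyard glass and bulrush seeds, then topped with 75 cm^3 soil containing false pimpernel seeds. The pots were flooded to 5 cm water depth and held in a hot house. Twenty-one days after treatment, herbicidal efficacy was graded against an untreated control.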
# [4] = system: bulrush; assay: as above; type: in vivo, Scirpus juncoides; conditions: dosage 1000 g/ha; post-emergence, one leaf stage; 21 days after treatment
# [5] = system: false pimpernel; assay: as above; type: in vivo, Lindernia pyxidaria; conditions: dosage 1000 g/ha; post-emergence, one leaf stage; 21 days after treatment
# [6] = system: paddy rice plant (cultivar: Nihonbare); assay: Test Example 3: phytotoxicity test for transplanted paddy rice plant; type: in vivo; conditions: dosage 1000 g/ha; transplanted rice, treated 5 days after transplantation; 21 days after treatment
# Summary of the method: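 Clay loam soil was placed in a 75 cm^2 plastic pot and flooded to a water depth of 5 cm. Two Nihonbare paddy rice plants at the two-leaf stage were transplanted 1 cm deep and grown in a hot house. After treatment, pots stayed in the hot house for 21 days, and phytotoxicity was then graded against an untreated control.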
# [7] = system: bulrush; assay: Test Example 4: low dosage test for rice paddy weeds; type: in vivo, Scirpus juncoides; conditions: 300 g/ha as an active ingredient; plants treated at the one leaf stage; 21 days after treatment; vs untreated control
# Summary of the method: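 Bulrush sown in clay loam pots, flooded to 5 cm water in a hot house, treated at the one-leaf stage with formulated compound at 300 g/ha. Efficacy scored 0–4 against untreated control 21 days after treatment (4 = 90–100%, 0 = 0% inhibition).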
# [8] = system: transplanted paddy rice plant and Bulrush; assay: Test Example 5: selectivity between transplanted paddy rice plant and weeds; type: in vivo; conditions: (highest dosage with no phytotoxicity to paddy rice)/(lowest dosage with effective level 4 on Bulrush); rice 3000-100 g/ha, Bulrush 300-10 g/ha; 21 days
# Summary of the method: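 Transplanted paddy rice was treated at 3000, 1000, 300 and 100 g/ha active ingredient for phytotoxicity, and post-emergence bulrush at 300, 100, 30 and 10 g/ha. Plants were kept in a hothouse for 21 days. Growth inhibition versus untreated control was scored 0–4 (0%, 1–39%, 40–69%, 70–89%, 90–100%).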
SMILES,Bulrush pre (herbicidal efficacy grade) [1],False pimpernel pre (herbicidal efficacy grade) [2],Burnyard grass post (herbicidal efficacy grade) [3],Bulrush post (herbicidal efficacy grade) [4],False pimpernel post (herbicidal efficacy grade) [5],Phytotoxicity to paddy rice [6],Herbicide effect to Bulrush [7],Selective Index [8]
CCC1(C(C)C)CN(Cc2ccccc2N(C(=O)OCC(C)C)S(=O)(=O)C(F)(F)F)C(=O)O1 (stereo not drawn) [1-133],4 (90%-100% of herbicidal efficacy or phytotoxicity),4 (90%-100% of herbicidal efficacy or phytotoxicity),4 (90%-100% of herbicidal efficacy or phytotoxicity),4 (90%-100% of herbicidal efficacy or phytotoxicity),4 (90%-100% of herbicidal efficacy or phytotoxicity),1 (1%-39% of herbicidal efficacy or phytotoxicity),4 (90%-100% of herbicidal efficacy or phytotoxicity),10
CCCC1(C)CN(Cc2ccccc2N(C(=O)OCC)S(=O)(=O)C(F)(F)F)C(=O)O1 (racemic) [1-127],4 (90%-100% of herbicidal efficacy or phytotoxicity),4 (90%-100% of herbicidal efficacy or phytotoxicity),4 (90%-100% of herbicidal efficacy or phytotoxicity),4 (90%-100% of herbicidal efficacy or phytotoxicity),4 (90%-100% of herbicidal efficacy or phytotoxicity),1 (1%-39% of herbicidal efficacy or phytotoxicity),4 (90%-100% of herbicidal efficacy or phytotoxicity),30
CCOC(=O)N(c1ccccc1CN1CC(CC)(CC)OC1=O)S(=O)(=O)C(F)(F)F [1-97],4 (90%-100% of herbicidal efficacy or phytotoxicity),4 (90%-100% of herbicidal efficacy or phytotoxicity),4 (90%-100% of herbicidal efficacy or phytotoxicity),4 (90%-100% of herbicidal efficacy or phytotoxicity),4 (90%-100% of herbicidal efficacy or phytotoxicity),1 (1%-39% of herbicidal efficacy or phytotoxicity),4 (90%-100% of herbicidal efficacy or phytotoxicity),30
CC(C)C1CN(Cc2ccccc2NS(=O)(=O)C(F)(F)F)C(=O)O1 (stereo not drawn) [1-31],4 (90%-100% of herbicidal efficacy or phytotoxicity),4 (90%-100% of herbicidal efficacy or phytotoxicity),4 (90%-100% of herbicidal efficacy or phytotoxicity),4 (90%-100% of herbicidal efficacy or phytotoxicity),4 (90%-100% of herbicidal efficacy or phytotoxicity),1 (1%-39% of herbicidal efficacy or phytotoxicity),4 (90%-100% of herbicidal efficacy or phytotoxicity),≧10
CCC1(CC)CN(Cc2ccccc2N(C(=O)OCC(C)C)S(=O)(=O)C(F)(F)F)C(=O)O1 [1-62],4 (90%-100% of herbicidal efficacy or phytotoxicity),4 (90%-100% of herbicidal efficacy or phytotoxicity),4 (90%-100% of herbicidal efficacy or phytotoxicity),4 (90%-100% of herbicidal efficacy or phytotoxicity),4 (90%-100% of herbicidal efficacy or phytotoxicity),1 (1%-39% of herbicidal efficacy or phytotoxicity),4 (90%-100% of herbicidal efficacy or phytotoxicity),10
COC(=O)N(c1ccccc1CN1C(=O)OC(C)(C)C1=O)S(=O)(=O)C(F)(F)F [1-188],4 (90%-100% of herbicidal efficacy or phytotoxicity),4 (90%-100% of herbicidal efficacy or phytotoxicity),4 (90%-100% of herbicidal efficacy or phytotoxicity),4 (90%-100% of herbicidal efficacy or phytotoxicity),4 (90%-100% of herbicidal efficacy or phytotoxicity),1 (1%-39% of herbicidal efficacy or phytotoxicity),4 (90%-100% of herbicidal efficacy or phytotoxicity),≧10
"CC(C)COC(=O)N(c1ccccc1CN1CC(C)OC1=S)S(=O)(=O)C(F)(F)F (stereo not drawn) [Compound No. 1-22, 5-methyl-3-{2-[N-(isobutoxycarbonyl)-N-(trifluoromethanesulfonyl)amino]benzyl}-2-oxazolidinethione]",4 (90%-100% of herbicidal efficacy or phytotoxicity),4 (90%-100% of herbicidal efficacy or phytotoxicity),4 (90%-100% of herbicidal efficacy or phytotoxicity),4 (90%-100% of herbicidal efficacy or phytotoxicity),4 (90%-100% of herbicidal efficacy or phytotoxicity),0 (0% of herbicidal efficacy or phytotoxicity),4 (90%-100% of herbicidal efficacy or phytotoxicity),33
CCCOC(=O)N(c1ccccc1CN1CC(C)(C)OC1=O)S(=O)(=O)C(F)(F)F [1-75],4 (90%-100% of herbicidal efficacy or phytotoxicity),4 (90%-100% of herbicidal efficacy or phytotoxicity),4 (90%-100% of herbicidal efficacy or phytotoxicity),4 (90%-100% of herbicidal efficacy or phytotoxicity),4 (90%-100% of herbicidal efficacy or phytotoxicity),1 (1%-39% of herbicidal efficacy or phytotoxicity),4 (90%-100% of herbicidal efficacy or phytotoxicity),≧30
CCC1(C(C)C)CN(Cc2ccccc2N(C(=O)OC)S(=O)(=O)C(F)(F)F)C(=O)O1 (stereo not drawn) [1-145],4 (90%-100% of herbicidal efficacy or phytotoxicity),4 (90%-100% of herbicidal efficacy or phytotoxicity),4 (90%-100% of herbicidal efficacy or phytotoxicity),4 (90%-100% of herbicidal efficacy or phytotoxicity),4 (90%-100% of herbicidal efficacy or phytotoxicity),2 (40%-69% of herbicidal efficacy or phytotoxicity),4 (90%-100% of herbicidal efficacy or phytotoxicity),10
CCCCCCOC(=O)N(c1ccccc1CN1CC(C)(C)OC1=O)S(=O)(=O)C(F)(F)F [1-93],4 (90%-100% of herbicidal efficacy or phytotoxicity),4 (90%-100% of herbicidal efficacy or phytotoxicity),4 (90%-100% of herbicidal efficacy or phytotoxicity),4 (90%-100% of herbicidal efficacy or phytotoxicity),4 (90%-100% of herbicidal efficacy or phytotoxicity),1 (1%-39% of herbicidal efficacy or phytotoxicity),4 (90%-100% of herbicidal efficacy or phytotoxicity),≧30
CC(C)COC(=O)N(c1ccccc1CN1CC(C)OC1=O)S(=O)(=O)C(F)(F)F (stereo not drawn) [Compound No. 1-18],4 (90%-100% of herbicidal efficacy or phytotoxicity),4 (90%-100% of herbicidal efficacy or phytotoxicity),4 (90%-100% of herbicidal efficacy or phytotoxicity),4 (90%-100% of herbicidal efficacy or phytotoxicity),4 (90%-100% of herbicidal efficacy or phytotoxicity),0 (0% of herbicidal efficacy or phytotoxicity),4 (90%-100% of herbicidal efficacy or phytotoxicity),33
CCC1(CC)CN(Cc2ccccc2N(C(=O)OC)S(=O)(=O)C(F)(F)F)C(=S)O1 [1-183],4 (90%-100% of herbicidal efficacy or phytotoxicity),4 (90%-100% of herbicidal efficacy or phytotoxicity),4 (90%-100% of herbicidal efficacy or phytotoxicity),4 (90%-100% of herbicidal efficacy or phytotoxicity),4 (90%-100% of herbicidal efficacy or phytotoxicity),1 (1%-39% of herbicidal efficacy or phytotoxicity),4 (90%-100% of herbicidal efficacy or phytotoxicity),10
